Experimental data from patent US9840513B2 (AbbVie S.à.r.l., priority 2015, dated 2017).

Biological target: T1, F508delCFTR cell surface expression in CFBE41o-F508delCFTR-HRP cells (Homo sapiens, UniProt P13569, DEL508-508)
T1 construct: fused on or other part: Horseradish peroxidase (HRP) reporter inserted in the fourth exofacial (extracellular) loop of CFTR; expression is doxycycline-inducible
Assay: Cell Surface Expression-Horse Radish Peroxidase (CSE-HRP) Assay
Assay type: cell-based
Settings: for EC50: CFBE41o-F508delCFTR-HRP cells, 18-24 hours at 33° C., 8-point curve, highest concentration 20 μM; for Maximum % activity (%): maximum at any tested concentration, normalized to on-plate positive control (3 μM)
Summary of the method: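 CFBE41o- cells with HRP-tagged F508delCFTR, expression induced by 0.5 μg/mL doxycycline for 72 h at 37 °C, then compound for 18-24 h at 33 °C (8-point, 3-fold, top 20 μM). Surface HRP measured by luminol luminescence; % activity normalised to 3 μM positive-control corrector; EC50 from variable-slope sigmoidal fit, three replicate plates.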

T1 sequence (P13569 with tags, fused parts or gaps DEL508-508 limits assumed): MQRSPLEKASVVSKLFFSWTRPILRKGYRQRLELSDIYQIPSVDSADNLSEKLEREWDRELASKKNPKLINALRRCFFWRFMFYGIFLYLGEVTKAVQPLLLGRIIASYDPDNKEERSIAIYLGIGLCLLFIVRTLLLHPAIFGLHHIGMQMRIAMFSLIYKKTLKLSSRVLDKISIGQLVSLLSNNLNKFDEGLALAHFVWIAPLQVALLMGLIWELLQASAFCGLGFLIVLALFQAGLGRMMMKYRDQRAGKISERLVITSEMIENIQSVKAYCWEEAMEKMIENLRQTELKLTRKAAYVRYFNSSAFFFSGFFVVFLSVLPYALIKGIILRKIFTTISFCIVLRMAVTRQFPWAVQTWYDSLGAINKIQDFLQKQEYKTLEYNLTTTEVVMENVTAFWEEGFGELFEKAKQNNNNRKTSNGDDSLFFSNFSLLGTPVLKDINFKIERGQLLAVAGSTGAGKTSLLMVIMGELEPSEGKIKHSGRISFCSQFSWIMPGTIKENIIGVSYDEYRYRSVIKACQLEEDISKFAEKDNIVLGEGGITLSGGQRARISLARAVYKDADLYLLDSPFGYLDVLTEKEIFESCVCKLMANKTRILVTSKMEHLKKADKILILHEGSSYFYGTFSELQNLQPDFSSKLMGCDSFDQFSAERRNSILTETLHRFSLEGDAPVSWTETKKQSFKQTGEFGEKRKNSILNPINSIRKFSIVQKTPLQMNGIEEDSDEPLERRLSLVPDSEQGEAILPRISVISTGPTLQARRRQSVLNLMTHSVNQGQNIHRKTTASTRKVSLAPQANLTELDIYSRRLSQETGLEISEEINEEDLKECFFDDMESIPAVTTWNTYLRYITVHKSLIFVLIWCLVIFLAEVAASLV
T1 sequence (P13569 919-1480 limits assumed, stated change not applied): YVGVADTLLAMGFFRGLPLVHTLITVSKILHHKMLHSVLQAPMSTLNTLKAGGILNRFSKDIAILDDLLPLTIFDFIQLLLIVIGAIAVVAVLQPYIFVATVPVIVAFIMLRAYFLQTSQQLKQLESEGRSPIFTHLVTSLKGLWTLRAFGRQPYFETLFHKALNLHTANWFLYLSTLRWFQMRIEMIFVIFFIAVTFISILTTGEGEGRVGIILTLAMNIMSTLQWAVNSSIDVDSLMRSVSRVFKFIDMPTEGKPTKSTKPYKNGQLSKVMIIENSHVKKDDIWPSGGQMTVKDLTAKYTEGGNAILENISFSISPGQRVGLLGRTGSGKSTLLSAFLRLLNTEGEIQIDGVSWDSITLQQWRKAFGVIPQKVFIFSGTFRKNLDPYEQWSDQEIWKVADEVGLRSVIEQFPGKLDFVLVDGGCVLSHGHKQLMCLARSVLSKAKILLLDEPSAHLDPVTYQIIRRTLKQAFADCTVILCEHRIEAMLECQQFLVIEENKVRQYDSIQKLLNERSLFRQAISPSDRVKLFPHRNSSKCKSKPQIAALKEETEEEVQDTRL

Row | Compound | EC50 [nM] | Maximum % activity (%)
1 | CC1(C(=O)Nc2nnc(-c3ccc(C(=O)O)cc3)s2)COc2cc3c(cc21)OC(F)(F)O3 (centres unmarked) [Example 53, 4-{5-[(2,2-difluoro-7-methyl-6,7-dihydro-2H-furo[2,3-f][1,3]benzodioxole-7-carbonyl)amino]-1,3,4-thiadiazol-2-yl}benzoic acid] | > 20000 | 1
2 | C[C@]1(C(=O)Nc2cc(-c3ccccc3)cn(C[C@@H](O)CO)c2=O)COc2cc3c(cc21)OC(F)(F)O3 [Example 100, (7R)—N-{1-[(2R)-2,3-dihydroxypropyl]-2-oxo-5-phenyl-1,2-dihydropyridin-3-yl}-2,2-difluoro-7-methyl-6,7-dihydro-2H-furo[2,3-f][1,3]benzodioxole-7-carboxamide] | 450 | 85
3 | Cc1ccc(NC(=O)[C@]2(C)COc3cc4c(cc32)OC(F)(F)O4)nc1-c1cccc(C(=O)O)c1 [Example 4, 3-(6-{[(7S)-2,2-difluoro-7-methyl-6,7-dihydro-2H-furo[2,3-f][1,3]benzodioxole-7-carbonyl]amino}-3-methylpyridin-2-yl)benzoic acid] | > 20000 | 12
4 | C[C@]1(C(=O)Nc2cnc(N3CCC[C@H]3C(=O)O)cn2)COc2cc3c(cc21)OC(F)(F)O3 [Example 102, 1-(5-{[(7R)-2,2-difluoro-7-methyl-6,7-dihydro-2H-furo[2,3-f][1,3]benzodioxole-7-carbonyl]amino}pyrazin-2-yl)proline] | 8290 | 61
5 | CC1(C(=O)Nc2cccc(-c3ccc(C(=O)O)cc3)c2)COc2cc3c(cc21)OC(F)(F)O3 (centres unmarked) [Example 69, 3′-[(2,2-difluoro-7-methyl-6,7-dihydro-2H-furo[2,3-f][1,3]benzodioxole-7-carbonyl)amino][1,1′-biphenyl]-4-carboxylic acid] | 1390 | 183
6 | (7R)—N-[6-(3-benzylpyrrolidin-1-yl)pyridin-2-yl]-2,2-difluoro-7-methyl-6,7-dihydro-2H-furo[2,3-f][1,3]benzodioxole-7-carboxamide [Example 113] | 1110 | 83

Other lines, results leading:

Row | EC50 [nM] | Maximum % activity (%) | Compound
7 | 660 | 125 | C[C@]1(C(=O)Nc2cc3cc(C4(COCc5ccccc5)CC4)n(C[C@@H](O)CO)c3cc2F)COc2cc3c(cc21)OC(F)(F)O3 [Example 203, (7R)—N-(2-{1-[(benzyloxy)methyl]cyclopropyl}-1-[(2R)-2,3-dihydroxypropyl]-6-fluoro-1H-indol-5-yl)-2,2-difluoro-7-methyl-6,7-dihydro-2H-furo[2,3-f][1,3]benzodioxole-7-carboxamide]
8 | 30 | 147 | COc1ccc2c(c1)O[C@@H](c1ccc(C(=O)N(CCO)Cc3ccccc3)cn1)C[C@H]2NC(=O)[C@@]1(C)COc2cc3c(cc21)OC(F)(F)O3 [Example 210, N-benzyl-6-[(2R,4R)-4-{[(7R)-2,2-difluoro-7-methyl-6,7-dihydro-2H-furo[2,3-f][1,3]benzodioxole-7-carbonyl]amino}-7-methoxy-3,4-dihydro-2H-1-benzopyran-2-yl]-N-(2-hydroxyethyl)pyridine-3-carboxamide]
9 | 30 | 122 | CCCN(CCO)C(=O)c1ccc([C@H]2C[C@@H](NC(=O)[C@@]3(C)COc4cc5c(cc43)OC(F)(F)O5)c3ccc(OC)cc3O2)nc1 [Example 209, 6-[(2R,4R)-4-{[(7R)-2,2-difluoro-7-methyl-6,7-dihydro-2H-furo[2,3-f][1,3]benzodioxole-7-carbonyl]amino}-7-methoxy-3,4-dihydro-2H-1-benzopyran-2-yl]-N-(2-hydroxyethyl)-N-propylpyridine-3-carboxamide]
10 | 20 | 158 | C[C@]1(C(=O)N[C@@H]2C[C@H](c3ccc(C(=O)O)cc3)Oc3cc(OC(F)F)ccc32)COc2cc3c(cc21)OC(F)(F)O3 [Example 139, 4-[(2R,4R)-7-(difluoromethoxy)-4-{[(7R)-2,2-difluoro-7-methyl-6,7-dihydro-2H-furo[2,3-f][1,3]benzodioxole-7-carbonyl]amino}-3,4-dihydro-2H-1-benzopyran-2-yl]benzoic acid]
11 | 1630 | 115 | COc1ccc2c(c1)O[C@H](C1CCC(C(=O)O)CC1)C[C@@H]2NC(=O)[C@]1(C)COc2cc3c(cc21)OC(F)(F)O3 (stereo partly drawn) [Example 293, 4-[(2S,4S)-4-{[(7S)-2,2-difluoro-7-methyl-6,7-dihydro-2H-furo[2,3-f][1,3]benzodioxole-7-carbonyl]amino}-7-methoxy-3,4-dihydro-2H-1-benzopyran-2-yl]cyclohexane-1-carboxylic acid]
12 | 210 | 120 | C[C@]1(C(=O)Nc2cc3cc(C4(COCc5ccccc5)CC4)n(C[C@@H](O)COCc4ccccc4)c3cc2F)COc2cc3c(cc21)OC(F)(F)O3 [Example 286, (7R)—N-(1-[(2R)-3-(benzyloxy)-2-hydroxypropyl]-2-{1-[(benzyloxy)methyl]cyclopropyl}-6-fluoro-1H-indol-5-yl)-2,2-difluoro-7-methyl-6,7-dihydro-2H-furo[2,3-f][1,3]benzodioxole-7-carboxamide]
13 | 80 | 136 | C[C@]1(C(=O)N[C@@H]2C[C@H]([C@H]3CC[C@H](C(=O)N(CCO)CCO)CC3)Oc3cc(OC(F)(F)F)ccc32)COc2cc3c(cc21)OC(F)(F)O3 [Example 254, (7R)—N-[(2R,4R)-2-{trans-4-[bis(2-hydroxyethyl)carbamoyl]cyclohexyl}-7-(trifluoromethoxy)-3,4-dihydro-2H-1-benzopyran-4-yl]-2,2-difluoro-7-methyl-6,7-dihydro-2H-furo[2,3-f][1,3]benzodioxole-7-carboxamide]
14 | 70 | 131 | COc1ccc2c(c1)O[C@@H](c1ccc(C(=O)N(CCO)CCO)cn1)C[C@H]2NC(=O)[C@@]1(C)COc2cc3c(cc21)OC(F)(F)O3 [Example 236, 6-[(2R,4R)-4-{[(7R)-2,2-difluoro-7-methyl-6,7-dihydro-2H-furo[2,3-f][1,3]benzodioxole-7-carbonyl]amino}-7-methoxy-3,4-dihydro-2H-1-benzopyran-2-yl]-N,N-bis(2-hydroxyethyl)pyridine-3-carboxamide]
15 | 990 | 131 | COC(=O)[C@H]1CN(c2cccc(NC(=O)[C@@]3(C)COc4cc5c(cc43)OC(F)(F)O5)n2)C[C@@H]1c1ccccc1 [Example 112, methyl (3R,4S)-1-(6-{[(7R)-2,2-difluoro-7-methyl-6,7-dihydro-2H-furo[2,3-f][1,3]benzodioxole-7-carbonyl]amino}pyridin-2-yl)-4-phenylpyrrolidine-3-carboxylate]
16 | 400 | 105 | COc1ccc2c(c1)OC(c1ccc(=O)n(C[C@@H](O)CO)n1)C[C@H]2NC(=O)[C@@]1(C)COc2cc3c(cc21)OC(F)(F)O3 (stereo partly drawn) [Example 196, (7R)—N-[(4R)-2-{1-[(2R)-2,3-dihydroxypropyl]-6-oxo-1,6-dihydropyridazin-3-yl}-7-methoxy-3,4-dihydro-2H-1-benzopyran-4-yl]-2,2-difluoro-7-methyl-6,7-dihydro-2H-furo[2,3-f][1,3]benzodioxole-7-carboxamide]
